Test results from patent publication US8802713B2, “3-alkoxy-1-phenylpyrazole derivatives and pesticides” (Kumiai Chemical Industry Co., Ltd., priority 2007, dated 2014).
Like-named read-outs stand apart in the source and are kept apart here.

Legend:
cotton aphid [1] = assay: Insecticidal test on cotton aphid (seedling dip); assay type: in vivo; settings: Aphis gossypii, 72 h
Experimental: (§1) A wettable powder prepared in accordance with Formulation Example 2 was diluted with water to a concentration of an active ingredient of 500 ppm. Cucumber seedlings which had been inoculated with larvae of cotton aphid were dipped in this solution and dried in air. The treated cucumber seedlings were placed in a thermostatic chamber at 25° C. for 3 days, and the live insects were counted for calculation of the mortality by Equation 2. The test was carried out by one series system.

cotton bollworm = assay: Insecticidal test on cotton bollworm; assay type: in vivo; settings: Helicoverpa armigera, 144 h
Experimental: A wettable powder prepared in accordance with Formulation Example 2 was diluted with water to a concentration of an active ingredient of 500 ppm. Cabbage leaves were dipped in this solution and dried in air and then put in a plastic cup having a capacity of 60 mL. Five hatched larvae of cotton bollworm were released in the cup, and the cup was lidded and placed in a thermostatic chamber at 25° C. for 6 days, and the number of dead larvae were assessed for calculation of the mortality by Equation 2. The test was carried out by two series system.

brown rice planthopper = assay: Insecticidal test on brown rice planthopper; assay type: in vivo; settings: 144 h
Method in brief: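 Rice sprouts dipped in 500 ppm active ingredient (water-diluted wettable powder), then exposed to ten third-instar brown rice planthopper larvae. Held at 25° C. for 6 days; dead larvae counted for mortality, single series.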

diamondback moth = assay: Insecticidal test on diamondback moth; assay type: in vivo; settings: Plutella xylostella, 144 h
Experimental: A wettable powder prepared in accordance with Formulation Example 2 was diluted with water to a concentration of an active ingredient of 500 ppm. Cabbage leaves were dipped in this solution and dried in air and then put in a plastic cup having a capacity of 60 mL. 10 second-instar larvae of diamondback moth were released in the cup and the cup was lidded. Then, the cup was placed in a thermostatic chamber at 25° C. for 6 days, and dead moths were counted for calculation of the mortality by Equation 2. The test was carried out by one series system.

two-spotted spider mites = assay: Miticidal test on two-spotted spider mites (seedling dip); assay type: in vivo, Tetranvchus urticae; settings: Glycine max, 312 h, read-out: protective value
Method in brief: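 Soybean seedlings carrying adult mites were dipped in wettable-powder dilution at 500 ppm active ingredient, air-dried, and held at 25° C for 13 days. Live mites were counted and a protective value calculated.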

cotton aphid [2] = assay: Insecticidal test on cotton aphid (root zone irrigation); assay type: in vivo; settings: Aphis gossypii, in Cucumis sativus, 72 h
Experimental: as §1, with “100” for “500”, “The root zone of cucumber” for “Cucumber”, “was irrigated with 5 mL of the solution.” for “were dipped in this solution and dried in air.”

[3] = system: southern root-knot nematodes; assay: Nematicidal test on root-knot nematode; assay type: in vivo; settings: Meloidogyne incognita, 120 h
Experimental: A compound to be tested was dissolved in N,N-dimethylformamide containing 1 mass % of tween 20, and this solution was diluted with distilled water to a concentration of an active ingredient of 20 ppm. 0.5 mL of the solution was mixed with 0.5 mL of a suspension containing about 30 second-instar larvaes of southern root-knot nematodes, and the mixture was placed in a thermostatic chamber at 25° C. for 5 days. The number of dead nematodes and the number of live nematodes were assessed by a microscope for calculation of the mortality by Equation 3. The test was carried out by two series system.

[4] = 500 ppm active ingredient, soybean seedlings with imago mites dipped, 25° C., 13 days
[5] = 500 ppm active ingredient, cucumber seedlings with larvae of cotton aphid dipped, 25° C., 3 days, read-out: mortality
[6] = 500 ppm active ingredient, cabbage leaves dipped, hatched larvae, 25° C., 6 days, read-out: mortality
[7] = 500 ppm active ingredient, cabbage leaves dipped, second-instar larvae, 25° C., 6 days, read-out: mortality

| SMILES | mortality at 500 ppm (cotton aphid [1]; in Cucumis sativus) [%] | mortality at 500 ppm (cotton bollworm; in Brassica oleracea) [%] | mortality at 500 ppm (brown rice planthopper) [%] | mortality at 500 ppm (diamondback moth; in Brassica oleracea) [%] | pest or weed control at 500 ppm (two-spotted spider mites; [4]) [%] | mortality at 100 ppm (cotton aphid [2]) [%] | mortality at 20 ppm [3] [%] | melting point [°C] | mortality at 500 ppm (cotton aphid [1]; [5]) [%] | mortality at 500 ppm (cotton bollworm; [6]) [%] | mortality at 500 ppm (diamondback moth; [7]) [%] | pest or weed control at 500 ppm (two-spotted spider mites) [%] |
| --- | --- | --- | --- | --- | --- | --- | --- | --- | --- | --- | --- | --- |
| CC(=O)Nc1cc(OC(F)(F)C(F)OC(F)(F)F)nn1-c1cc(SCC(F)(F)F)c(C)cc1F (stereo not drawn) [1-15, 5-acetylamino-1-{2-fluoro-4-methyl-5-(2,2,2-trifluoroethylthio)phenyl}-3-{1,1,2-trifluoro-2-(trifluoromethoxy)ethoxy}pyrazole] | ≥ 90 | ≥ 90 | ≥ 90 | ≥ 90 | ≥ 90 |  |  |  |  |  |  |  |
| CC(=O)Nc1cc(OCC(F)(F)C(F)(F)F)nn1-c1cc(SCC(F)(F)F)c(C)cc1F [1-17, 5-acetylamino-1-{2-fluoro-4-methyl-5-(2,2,2-trifluoroethylthio)phenyl}-3-(2,2,3,3,3-pentafluoropropoxy)pyrazole] | ≥ 90 | ≥ 90 | ≥ 90 | ≥ 90 | ≥ 90 |  |  |  |  |  |  |  |
| CC(=O)Nc1cc(OCC(F)(F)C(F)(F)F)nn1-c1cc([S+]([O-])CC(F)(F)F)c(C)cc1F (stereo not drawn) [1-18, 5-acetylamino-1-{2-fluoro-4-methyl-5-(2,2,2-trifluoroethylsulfinyl)phenyl}-3-(2,2,3,3,3-pentafluoropropoxy)pyrazole] | ≥ 90 | ≥ 90 | ≥ 90 | ≥ 90 | ≥ 90 | ≥ 90 |  |  |  |  |  |  |
| Cc1cc(F)c(-n2nc(OCC(F)(F)C(F)(F)F)cc2C)cc1[S+]([O-])CC(F)(F)F (stereo not drawn) [1-92, 1-{2-fluoro-4-methyl-5-(2,2,2-trifluoroethylsulfinyl)phenyl}-5-methyl-3-(2,2,3,3,3-pentafluoropropoxy)pyrazole] | ≥ 90 |  | ≥ 90 |  | ≥ 90 |  | ≥ 90 |  |  |  |  |  |
| Cc1cc(F)c(-n2nc(OCC(F)(F)C(F)(F)F)cc2CC(N)=O)cc1SCC(F)(F)F [1-139, 1-{2-fluoro-4-methyl-5-(2,2,2-trifluoroethylthio)phenyl}-3-(2,2,3,3,3-pentafluoropropoxy)pyrazole-5-carboxyamide] |  |  |  |  |  |  |  | 102 to 104 |  |  |  |  |
| CCOC(=O)c1cc(OCC(F)(F)C(F)(F)F)nn1-c1cc(SCC(F)(F)F)c(C)cc1F [1-143, ethyl 1-{2-fluoro-4-methyl-5-(2,2,2-trifluoroethylthio)phenyl}-3-(2,2,3,3,3-pentafluoropropoxy)pyrazole-5-carboxylate] |  |  |  |  |  |  |  | 81 to 84 |  |  |  |  |
| C#CCNc1cc(OCC(F)(F)C(F)(F)F)nn1-c1cc(SCC(F)(F)F)c(C)cc1F [1-161, 1-{2-fluoro-4-methyl-5-(2,2,2-trifluoroethylthio)phenyl}-3-(2,2,3,3,3-pentafluoropropoxy)-5-(2-propynylamino)pyrazole] | ≥ 90 | ≥ 90 | ≥ 90 | ≥ 90 | ≥ 90 |  |  |  |  |  |  |  |
| C#CCNc1cc(OCC(F)(F)C(F)(F)F)nn1-c1cc([S+]([O-])CC(F)(F)F)c(C)cc1F (stereo not drawn) [1-162, 1-{2-fluoro-4-methyl-5-(2,2,2-trifluoroethylsulfinyl)phenyl}-3-(2,2,3,3,3-pentafluoropropoxy)-5-(2-propynylamino)pyrazole] | ≥ 90 | ≥ 90 |  | ≥ 90 | ≥ 90 |  | ≥ 90 |  |  |  |  |  |
| CNc1cc(OC(F)(F)C(F)OC(F)(F)C(F)(F)C(F)(F)F)nn1-c1cc(SCC(F)(F)F)c(C)cc1F (stereo not drawn) [1-347, 1-{2-fluoro-4-methyl-5-(2,2,2-trifluoroethylthio)phenyl}-5-methylamino-3-{1,1,2-trifluoro-2-(heptafluoropropoxy)ethoxy}pyrazole] |  |  | ≥ 90 |  |  |  |  |  | ≥ 90 | ≥ 90 | ≥ 90 | ≥ 90 |
| CNc1cc(OC(F)(F)C(F)OC(F)(F)C(F)(F)C(F)(F)F)nn1-c1cc([S+]([O-])CC(F)(F)F)c(C)cc1F (stereo not drawn) [1-348, 1-{2-fluoro-4-methyl-5-(2,2,2-trifluoroethylsulfinyl)phenyl}-5-methylamino-3-{1,1,2-trifluoro-2-(heptafluoropropoxy)ethoxy}pyrazole] |  |  |  |  |  |  | ≥ 90 |  |  | ≥ 90 | ≥ 90 | ≥ 90 |
| C#CCNc1cc(OC(F)(F)C(F)OC(F)(F)C(F)(F)C(F)(F)F)nn1-c1cc(SCC(F)(F)F)c(C)cc1F (stereo not drawn) [1-357, 1-{2-fluoro-4-methyl-5-(2,2,2-trifluoroethylthio)phenyl}-5-(2-propynylamino)-3-{1,1,2-trifluoro-2-(heptafluoropropoxy)ethoxy}pyrazole] |  |  | ≥ 90 |  |  |  |  |  | ≥ 90 | ≥ 90 | ≥ 90 | ≥ 90 |
| COc1cc(OC(F)(F)C(F)OC(F)(F)F)nn1-c1cc([S+]([O-])CC(F)(F)F)c(C)cc1F (stereo not drawn) [1-795, 1-{2-fluoro-4-methyl-5-(2,2,2-trifluoroethylsulfinyl)phenyl}-5-methoxy-3-{1,1,2-trifluoro-2-(trifluoromethoxy)ethoxy}pyrazole] | ≥ 90 | ≥ 90 | ≥ 90 | ≥ 90 | ≥ 90 |  |  |  |  |  |  |  |
| CC(=O)Nc1cc(OC(F)(F)C(F)F)nn1-c1cc([S+]([O-])CC(F)(F)F)c(C)cc1F (stereo not drawn) [1-1368, 5-acetylamino-1-{2-fluoro-4-methyl-5-(2,2,2-trifluoroethylsulfinyl)phenyl}-3-(1,1,2,2-tetrafluoroethoxy)pyrazole] | ≥ 90 | ≥ 90 | ≥ 90 | ≥ 90 | ≥ 90 |  |  |  |  |  |  |  |
| Cc1cc(F)c(-n2cc(C#N)c(OC(F)(F)C(F)OC(F)(F)F)n2)cc1SCC(F)(F)F (stereo not drawn) [1-1587, 4-cyano-1-{2-fluoro-4-methyl-5-(2,2,2-trifluoroethylthio)phenyl}-3-{1,1,2-trifluoro-2-(trifluoromethoxy)ethoxy}pyrazole] |  |  |  |  | ≥ 90 |  |  | 57 to 58 |  |  |  |  |
| Cc1cc(F)c(-n2nc(OCC(F)(F)C(F)(F)C(F)(F)F)cc2NC=O)cc1SCC(F)(F)F [1-1593, 1-{2-fluoro-4-methyl-5-(2,2,2-trifluoroethylthio)phenyl}-5-formylamino-3-(2,2,3,3,4,4,4-heptafluorobutoxy)pyrazole] |  |  | ≥ 90 |  |  |  |  |  | ≥ 90 | ≥ 90 | ≥ 90 | ≥ 90 |
